We go through two molecules from PMC6225212, “Synthesis and Pharmacological Evaluation of Novel Silodosin-Based Arylsulfonamide Derivatives as α1A/α1D-Adrenergic Receptor Antagonist with Potential Uroselective Profile” (Molecules : A Journal of Synthetic Chemistry and Natural …, 2018).

Assay [1] has as its target T1, human 5-HT1A (Homo sapiens, UniProt P08908).
T1 construct: expressed in transfected cells; host or cells: CHO-K1
T1 sequence (P08908 1-422): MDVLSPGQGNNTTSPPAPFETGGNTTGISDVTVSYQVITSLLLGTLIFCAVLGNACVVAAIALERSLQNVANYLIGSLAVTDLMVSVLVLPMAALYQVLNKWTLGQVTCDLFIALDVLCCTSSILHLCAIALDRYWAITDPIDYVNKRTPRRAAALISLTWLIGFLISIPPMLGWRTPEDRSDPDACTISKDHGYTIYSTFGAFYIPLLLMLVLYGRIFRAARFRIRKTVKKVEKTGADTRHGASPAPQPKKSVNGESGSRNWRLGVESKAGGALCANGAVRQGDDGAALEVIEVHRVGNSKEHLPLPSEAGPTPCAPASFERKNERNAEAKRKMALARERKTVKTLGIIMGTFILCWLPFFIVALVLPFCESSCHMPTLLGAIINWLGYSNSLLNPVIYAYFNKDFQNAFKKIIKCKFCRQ
Nature of the assay: Radioligand binding [3H]-8-OH-DPAT, membranes from CHO-K1 cells. As to conditions: ± SEM, two independent experiments. The protocol: (§1) Experiments were performed using membranes from CHO-K1 cells stably transfected with the human 5-HT1A and 5-HT7Rs according to the methods previously described.
(§2) Binding experiments were conducted in 96-well microplates in a total volume of 250 μL of appropriate buffers. The composition of the assay buffers was as follows: 50 mM Tris-HCl, 0.1 mM EDTA, 10 mM MgCl2. The reaction mix included 50 μL solution of test compound, 50 μL of radioligand, and 150 μL of diluted membranes. All assays were incubated for 1 h (5-HT1ARs) or 2 h (5-HT7Rs) at 37 °C. Radioactivity was counted in MicroBeta2 scintillation counter (PerkinElmer, Waltham, MA, USA). Nonspecific binding is defined with 10 µM of 5-HT and 10 µM of methiothepine in 5-HT1AR and 5-HT7R binding experiments, respectively. Each compound was tested in screening assay at two final concentrations of 10 µM and 1 µM.

The target in assay [2] is T2, muscarinic M1R (Homo sapiens, UniProt P11229).
T2 construct: Eurofins (Celle-Lévescault, France)
T2 sequence (P11229 1-460): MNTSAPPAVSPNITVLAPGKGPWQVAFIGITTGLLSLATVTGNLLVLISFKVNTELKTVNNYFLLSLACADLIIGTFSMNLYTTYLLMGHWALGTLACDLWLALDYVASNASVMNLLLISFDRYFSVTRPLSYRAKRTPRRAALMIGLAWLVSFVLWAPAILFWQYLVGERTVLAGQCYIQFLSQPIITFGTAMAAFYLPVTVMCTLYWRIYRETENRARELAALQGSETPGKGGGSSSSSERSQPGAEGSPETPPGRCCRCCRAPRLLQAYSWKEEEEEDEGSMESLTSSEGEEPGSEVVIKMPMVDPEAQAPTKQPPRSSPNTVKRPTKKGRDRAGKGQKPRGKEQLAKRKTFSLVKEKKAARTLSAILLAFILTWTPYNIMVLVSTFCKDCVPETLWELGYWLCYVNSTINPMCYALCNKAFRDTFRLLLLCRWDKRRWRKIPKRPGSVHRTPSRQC
The experiment in a line: Off-target panel at Eurofins Cerep, M1. It is filed as binding. The protocol: Finally, the percentage of inhibition for selected compounds 9 and 10 for off-target histaminic H1R, muscarinic M1R, adrenergic β1-AR and potassium ion channel hERG were assessed at Eurofins (Celle-Lévescault, France) according to the procedure online at www.eurofins.com.

The target of assay [3] is T3, human 5-HT7Rs (Homo sapiens, UniProt P34969).
T3 construct: expressed in transfected cells; host or cells: CHO-K1
Nature of the assay: Radioligand binding screening [3H]-LSD, membranes from CHO-K1 cells. As to conditions: for inhibition at 1 µM: 10^−6 M, read-out: 5-HT7 %inh @ 10^−6 M; for inhibition at 0.1 µM: 10^−7 M, read-out: 5-HT7 %inh @ 10^−7 M. The protocol: as §1
as §2, with “Each compound was tested in screening assay at two final concentrations of 10 µM and 1 µM.” left out

For assay [4], the system named is α1-ARs. The experiment in a line: Radioligand binding, displacement of [3H]-Prazosin from α1-ARs on rat cerebral cortex. As to conditions: for Sα2/α1 (ratio of affinity for α2- and α1-ARs): Ki α2 / Ki α1; for Ki: [3H]-Prazosin, rat cerebral cortex, ± SEM, two independent experiments. The protocol: The pharmacological profile of the new compounds was assessed in radioligand-binding assays as the ability to displace [^3H]-Prazosin or [^3H]-Clonidine from α1- and α2-ARs, respectively, on rat cerebral cortex. The inhibition constants (Ki) were calculated from the Cheng-Prusoff equation [24].
The affinity of the obtained compounds was evaluated by radioligand-binding assays (the ability to displace [^3H]-Prazosin and [^3H]-Clonidine from α1- and α2-ARs, respectively) on rat cerebral cortex. The brains are homogenized in 20 volumes of an ice-cold 50 mM Tris-HCl buffer (pH 7.6) and is centrifuged (MPW Med. Instruments, Warsaw, Poland) at 20,000 g for 20 min (0–4 °C). The cell pellet is resuspended in the Tris-HCl buffer and centrifuged again. Radioligand-binding assays are performed in plates (MultiScreen/Millipore, Burlington, MA, USA). The final incubation mixture (final volume 300 µL) consisted of 240 µL of the membrane suspension, 30 µL of [^3H]-Prazosin (0.2 nM) or [^3H]-Clonidine (2 nM) solution, and 30 µL of the buffer containing seven to eight concentrations (10^−11 to 10^−4 M) of the tested compounds. For measuring the unspecific binding, phentolamine, 10 µM (in the case of [^3H]-Prazosin) and clonidine, and 10 µM (in the case of [^3H]-Clonidine), were applied. The incubation was terminated by rapid filtration over glass fiber filters (Whatman GF/C, Sigma-Aldrich) using a vacuum manifold (Millipore). The filters were then washed twice with the assay buffer and placed in scintillation vials with a liquid-scintillation cocktail. Radioactivity was measured in a WALLAC 1409 DSA liquid-scintillation counter (BioSurplus, San Diego, CA, USA). All the assays were made in duplicate.

T3 sequence (P34969 whole entry): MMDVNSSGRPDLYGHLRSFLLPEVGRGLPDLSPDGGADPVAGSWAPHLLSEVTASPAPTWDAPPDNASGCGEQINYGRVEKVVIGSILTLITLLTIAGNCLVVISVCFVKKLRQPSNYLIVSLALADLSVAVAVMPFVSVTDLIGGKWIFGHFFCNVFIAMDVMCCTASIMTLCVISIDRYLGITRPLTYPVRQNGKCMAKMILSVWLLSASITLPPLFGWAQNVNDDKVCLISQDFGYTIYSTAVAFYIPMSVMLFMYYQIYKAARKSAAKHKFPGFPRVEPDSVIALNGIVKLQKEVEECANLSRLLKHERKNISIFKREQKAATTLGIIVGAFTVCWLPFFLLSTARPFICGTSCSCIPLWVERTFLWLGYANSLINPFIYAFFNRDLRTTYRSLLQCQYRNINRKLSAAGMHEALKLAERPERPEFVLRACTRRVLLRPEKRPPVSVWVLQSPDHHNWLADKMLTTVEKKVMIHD

Regarding `O=S(=O)(NCC1CCN(CCOc2ccccc2OCC(F)(F)F)CC1)c1cccc(Cl)c1F` [Compound 9, 3-Chloro-2-fluoro-N-[(1-{2-[(2,2,2-trifluoroethoxy)phenoxy]ethyl}piperidin-4-yl)methyl]benzenesulfonamide], the Ki (commonly a dissociation constant, usually derived from enzyme kinetics or from competition with a known ligand) in assay [1] was 70 ± 3.5 nM. The molecule also showed an inhibition at 1 µM in assay [2] of less than 50%. In assay [3], the inhibition at 1 µM was determined as 93% and the inhibition at 0.1 µM was determined as 57%. Besides, in assay [4], the “Sα2/α1 (ratio of affinity for α2- and α1-ARs)” value was determined as 17; the Ki came out at 50 ± 2 nM.

Consider `O=S(=O)(NCC1CCN(CCOc2ccccc2OCC(F)(F)F)CC1)c1cc(Cl)ccc1F` [Compound 10, 5-Chloro-2-fluoro-N-[(1-{2-[(2,2,2-trifluoroethoxy)phenoxy]ethyl}piperidin-4-yl)methyl]benzenesulfonamide], for which, in assay [1], the Ki turned out to be 46 ± 0.6 nM. The inhibition at 1 µM in assay [2] was less than 50%. In assay [3], the inhibition at 1 µM stood at 94% and the inhibition at 0.1 µM is 61%. Besides, in assay [4], the “Sα2/α1 (ratio of affinity for α2- and α1-ARs)” value is 23; the Ki is 26 ± 1 nM.
